Reference: US7592345B2, “Piperazine and [1,4]diazepan derivatives as NK antagonists” (Hoffmann-La Roche Inc., priority 2007, dated 2009)

The compounds below were run against T1, recombinant human NK3 receptor (Homo sapiens, UniProt P29371) (assay: [3H]SR142801 competition binding assay). Conditions: [3H]SR142801, membranes from HEK293 cells transiently expressing recombinant human NK3 receptor; read-out: hNK3 Ki.
T1 construct: expressed in transfected cells; host or cells: HEK293 cells (transient expression), membranes
T1 sequence (P29371 1-465): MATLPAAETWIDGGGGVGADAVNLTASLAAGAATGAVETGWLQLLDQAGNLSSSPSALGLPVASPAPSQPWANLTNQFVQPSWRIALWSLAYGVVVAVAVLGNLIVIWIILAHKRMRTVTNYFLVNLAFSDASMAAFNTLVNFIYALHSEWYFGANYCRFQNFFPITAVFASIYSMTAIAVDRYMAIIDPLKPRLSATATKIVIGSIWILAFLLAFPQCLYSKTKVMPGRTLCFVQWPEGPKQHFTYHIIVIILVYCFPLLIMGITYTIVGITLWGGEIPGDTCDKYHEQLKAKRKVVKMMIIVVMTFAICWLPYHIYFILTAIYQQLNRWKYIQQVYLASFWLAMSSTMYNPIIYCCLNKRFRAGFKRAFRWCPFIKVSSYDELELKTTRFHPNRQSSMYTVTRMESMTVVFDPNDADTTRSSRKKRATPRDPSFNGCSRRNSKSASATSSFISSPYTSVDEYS
How it was run: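 Membranes from HEK293 cells transiently expressing human NK3 were incubated 75 min at RT with [3H]SR142801 at its KD and inhibitor (0.0003-10 μM) in Tris-HCl pH 7.4/MnCl2/phosphoramidon/BSA. Nonspecific binding used 10 μM SB222200. Ki from Hill-fitted IC50 via Cheng-Prusoff, duplicate determinations.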
For `C[C@@H]1CN(CCC(C)(C(=O)N(C)Cc2ccc(Cl)c(C(F)(F)F)c2)c2ccc(Cl)c(Cl)c2)CCN1S(C)(=O)=O` (stereo partly drawn) [Example 39, N-(4-Chloro-3-trifluoromethyl-benzyl)-2-(3,4-dichloro-phenyl)-4-((R)-4-methanesulfonyl-3-methyl-piperazin-1-yl)-2,N-dimethyl-butyramide], the Ki was 12.6 nM. With `CN(Cc1ccc(C(F)(F)F)cc1)C(=O)C(C)(CCN1CCCN(S(C)(=O)=O)CC1)c1ccc(Cl)c(Cl)c1` (stereo not drawn) [Example 96, 2-(3,4-Dichloro-phenyl)-4-(4-methanesulfonyl-[1,4]diazepan-1-yl)-2,N-dimethyl-N-(4-trifluoromethyl-benzyl)-butyramide] the Ki was 24.5 nM. In the case of `COc1ccc(CN(C)C(=O)C(C)(CCN2CCCN(S(C)(=O)=O)CC2)c2ccc(Cl)c(Cl)c2)cc1F` (stereo not drawn) [Example 104, 2-(3,4-Dichloro-phenyl)-N-(3-fluoro-4-methoxy-benzyl)-4-(4-methanesulfonyl-[1,4]diazepan-1-yl)-2,N-dimethyl-butyramide], the Ki is reported as 60.2 nM. Compound `C[C@H]1CN(CCC(C)(C(=O)NCc2cccc(OC(F)(F)F)c2)c2ccc(Cl)c(Cl)c2)CCN1S(C)(=O)=O` (stereo partly drawn) [Example 81, 2-(3,4-Dichloro-phenyl)-4-((S)-4-methanesulfonyl-3-methyl-piperazin-1-yl)-2-methyl-N-(3-trifluoromethoxy-benzyl)-butyramide] has a Ki of 126 nM. `CC(CCN1CCN(S(C)(=O)=O)CC1)(C(=O)N[C@@H](CO)c1ccc(F)cc1)c1ccc(Cl)c(Cl)c1` (stereo partly drawn) [Example 132, 2-(3,4-Dichloro-phenyl)-N-[(R)-1-(4-fluoro-phenyl)-2-hydroxy-ethyl]-4-(4-methanesulfonyl-piperazin-1-yl)-2-methyl-butyramide] gave a Ki of 146 nM. For `CN(Cc1ccc(-c2ccncc2)cc1)C(=O)C(CCN1CCN(S(C)(=O)=O)CC1)c1ccc(Cl)c(Cl)c1` (stereo not drawn) [Example 2, 2-(3,4-Dichloro-phenyl)-4-(4-methanesulfonyl-piperazin-1-yl)-N-methyl-N-(4-pyridin-4-yl-benzyl)-butyramide], the Ki was 315 nM. `CC(CCN1CCN(S(C)(=O)=O)CC1)(C(=O)NCc1ccc(Cl)cc1)c1ccc(Cl)c(Cl)c1` (stereo not drawn) [Example 29, N-(4-Chloro-benzyl)-2-(3,4-dichloro-phenyl)-4-(4-methanesulfonyl-piperazin-1-yl)-2-methyl-butyramide] gave a Ki of 98.4 nM. `C[C@H]1CN(CCC(C)(C(=O)NCc2ccc(C(F)(F)F)cc2)c2ccc(Cl)c(Cl)c2)CCN1S(C)(=O)=O` (stereo partly drawn) [Example 75, 2-(3,4-Dichloro-phenyl)-4-((S)-4-methanesulfonyl-3-methyl-piperazin-1-yl)-2-methyl-N-(4-trifluoromethyl-benzyl)-butyramide] was tested, and the Ki was 68.1 nM. In the case of `CC(CCN1CCN(S(C)(=O)=O)CC1)(C(=O)N[C@H](CO)c1ccc(Cl)cc1)c1ccc(Cl)c(Cl)c1` (stereo partly drawn) [Example 131, N-[(S)-1-(4-Chloro-phenyl)-2-hydroxy-ethyl]-2-(3,4-dichloro-phenyl)-4-(4-methanesulfonyl-piperazin-1-yl)-2-methyl-butyramide], the Ki is reported as 186 nM. `CC(NC(=O)C(C)(CCN1CCN(S(C)(=O)=O)[C@H](C)C1)c1ccc(Cl)c(Cl)c1)c1ccc(Cl)c(Cl)c1` (stereo partly drawn) [Example 50, 2-(3,4-Dichloro-phenyl)-N-[1-(3,4-dichloro-phenyl)-ethyl]-4-((R)-4-methanesulfonyl-3-methyl-piperazin-1-yl)-2-methyl-butyramide] showed a Ki of 25.8 nM. Compound `C[C@@H]1CN(CCC(C)(C(=O)N(C)Cc2ccc(Cl)c(Cl)c2)c2ccc(Cl)c(Cl)c2)CCN1S(C)(=O)=O` (stereo partly drawn) [Example 41, N-(3,4-Dichloro-benzyl)-2-(3,4-dichloro-phenyl)-4-((R)-4-methanesulfonyl-3-methyl-piperazin-1-yl)-2,N-dimethyl-butyramide] has a Ki of 13.3 nM. Compound `CN(Cc1ccc(Cl)cc1)C(=O)C(CCN1CCN(S(C)(=O)=O)CC1)c1ccc(Cl)c(Cl)c1` (stereo not drawn) [Example 1, N-(4-Chloro-benzyl)-2-(3,4-dichloro-phenyl)-4-(4-methanesulfonyl-piperazin-1-yl)-N-methyl-butyramide] has a Ki of 171 nM. For `CC(CCN1CCCN(S(C)(=O)=O)CC1)(C(=O)NCc1cccc(OC(F)(F)F)c1)c1ccc(Cl)c(Cl)c1` (stereo not drawn) [Example 102, 2-(3,4-Dichloro-phenyl)-4-(4-methanesulfonyl-[1,4]diazepan-1-yl)-2-methyl-N-(3-trifluoromethoxy-benzyl)-butyramide], the Ki was 123 nM. With `C[C@@H]1CN(CCC(C)(C(=O)NCc2ccc(Cl)c(C(F)(F)F)c2)c2ccc(Cl)c(Cl)c2)CCN1S(C)(=O)=O` (stereo partly drawn) [Example 54, N-(4-Chloro-3-trifluoromethyl-benzyl)-2-(3,4-dichloro-phenyl)-4-((R)-4-methanesulfonyl-3-methyl-piperazin-1-yl)-2-methyl-butyramide] the Ki was 17.5 nM. Compound `COc1cc(CN(C)C(=O)C(C)(CCN2CCN(S(C)(=O)=O)CC2)c2ccc(Cl)c(Cl)c2)ccc1OC(F)F` (stereo not drawn) [Example 26, 2-(3,4-Dichloro-phenyl)-N-(4-difluoromethoxy-3-methoxy-benzyl)-4-(4-methanesulfonyl-piperazin-1-yl)-2,N-dimethyl-butyramide] has a Ki of 275 nM. Compound `CN(Cc1ccc(Cl)c(C(F)(F)F)c1)C(=O)C(C)(CCN1CCCN(S(C)(=O)=O)CC1)c1ccc(Cl)c(Cl)c1` (stereo not drawn) [Example 111, N-(4-Chloro-3-trifluoromethyl-benzyl)-2-(3,4-dichloro-phenyl)-4-(4-methanesulfonyl-[1,4]diazepan-1-yl)-2,N-dimethyl-butyramide] has a Ki of 6.7 nM. With `CN(Cc1ccc(F)c(C(F)(F)F)c1)C(=O)C(C)(CCN1CCCN(S(C)(=O)=O)CC1)c1ccc(Cl)c(Cl)c1` (stereo not drawn) [Example 106, 2-(3,4-Dichloro-phenyl)-N-(4-fluoro-3-trifluoromethyl-benzyl)-4-(4-methanesulfonyl-[1,4]diazepan-1-yl)-2,N-dimethyl-butyramide] the Ki was 9.2 nM. `CC(NC(=O)C(C)(CCN1CCCN(S(C)(=O)=O)CC1)c1ccc(Cl)c(Cl)c1)c1ccc(Cl)c(Cl)c1` (stereo not drawn) [Example 122, 2-(3,4-Dichloro-phenyl)-N-[1-(3,4-dichloro-phenyl)-ethyl]-4-(4-methanesulfonyl-[1,4]diazepan-1-yl)-2-methyl-butyramide] was tested, and the Ki was 43.4 nM. `CC(CCN1CCCN(S(C)(=O)=O)CC1)(C(=O)NCc1ccc(C#N)cc1)c1ccc(Cl)c(Cl)c1` (stereo not drawn) [Example 124, N-(4-Cyano-benzyl)-2-(3,4-dichloro-phenyl)-4-(4-methanesulfonyl-[1,4]diazepan-1-yl)-2-methyl-butyramide] showed a Ki of 107 nM. `C[C@@H]1CN(CCC(C)(C(=O)N(C)Cc2ccc(F)c(C(F)(F)F)c2)c2ccc(Cl)c(Cl)c2)CCN1S(C)(=O)=O` (stereo partly drawn) [Example 33, 2-(3,4-Dichloro-phenyl)-N-(4-fluoro-3-trifluoromethyl-benzyl)-4-((R)-4-methanesulfonyl-3-methyl-piperazin-1-yl)-2,N-dimethyl-butyramide] showed a Ki of 15.8 nM. `CN(Cc1cccc(C(F)(F)F)c1)C(=O)C(C)(CCN1CCN(S(C)(=O)=O)CC1)c1ccc(Cl)c(Cl)c1` (stereo not drawn) [Example 127, 2-(3,4-Dichloro-phenyl)-4-(4-methanesulfonyl-piperazin-1-yl)-2,N-dimethyl-N-(3-trifluoromethyl-benzyl)-butyramide] was tested, and the Ki was 78.4 nM. `C[C@H]1CN(CCC(C)(C(=O)N(C)Cc2cccc(C(F)(F)F)c2)c2ccc(Cl)c(Cl)c2)CCN1S(C)(=O)=O` (stereo partly drawn) [Example 87, 2-(3,4-Dichloro-phenyl)-4-((S)-4-methanesulfonyl-3-methyl-piperazin-1-yl)-2,N-dimethyl-N-(3-trifluoromethyl-benzyl)-butyramide] showed a Ki of 52 nM. `COc1ccc(C(NC(=O)C(C)(CCN2CCCN(S(C)(=O)=O)CC2)c2ccc(Cl)c(Cl)c2)C2CC2)cc1` (stereo not drawn) [Example 105, N-[Cyclopropyl-(4-methoxy-phenyl)-methyl]-2-(3,4-dichloro-phenyl)-4-(4-methanesulfonyl-[1,4]diazepan-1-yl)-2-methyl-butyramide] gave a Ki of 134 nM. `CC(CCN1CCCN(S(C)(=O)=O)CC1)(C(=O)NCc1ccc(C(F)(F)F)nc1)c1ccc(Cl)c(Cl)c1` (stereo not drawn) [Example 126, 2-(3,4-Dichloro-phenyl)-4-(4-methanesulfonyl-[1,4]diazepan-1-yl)-2-methyl-N-(6-trifluoromethyl-pyridin-3-ylmethyl)-butyramide] was tested, and the Ki was 949 nM. Work on `COc1cccc(CN(C)C(=O)C(C)(CCN2CCN(S(C)(=O)=O)[C@@H](C)C2)c2ccc(Cl)c(Cl)c2)c1` (stereo partly drawn) [Example 78, 2-(3,4-Dichloro-phenyl)-4-((S)-4-methanesulfonyl-3-methyl-piperazin-1-yl)-N-(3-methoxy-benzyl)-2,N-dimethyl-butyramide] yielded a Ki of 611 nM. For `C[C@H]1CN(CCC(C)(C(=O)NCc2ccc(Cl)c(Cl)c2)c2ccc(Cl)c(Cl)c2)CCN1S(C)(=O)=O` (stereo partly drawn) [Example 72, N-(3,4-Dichloro-benzyl)-2-(3,4-dichloro-phenyl)-4-((S)-4-methanesulfonyl-3-methyl-piperazin-1-yl)-2-methyl-butyramide], the Ki was 42.9 nM. With `C[C@H]1CN(CCC(C)(C(=O)N(C)Cc2ccc(C(F)(F)F)cc2)c2ccc(Cl)c(Cl)c2)CCN1S(C)(=O)=O` (stereo partly drawn) [Example 85, 2-(3,4-Dichloro-phenyl)-4-((S)-4-methanesulfonyl-3-methyl-piperazin-1-yl)-2,N-dimethyl-N-(4-trifluoromethyl-benzyl)-butyramide] the Ki was 27.7 nM.
